≈ marks a conversion by molar mass, not a printed value.
Assays:
[1] = Color of powder obtained by ATFD; type: physicochemical; conditions: ATFD system B; from 15 min (2′FL), 30 min (LNnT) or 20 min (6′SL) and at each subsequent time-point
From the text: In a first aspect, provided is a method for drying an oligosaccharide and/or for obtaining an oligosaccharide in the form of a solid (preferably a powder), the method comprising the steps of: • i) providing a solution comprising an oligosaccharide; and • ii) applying the solution to an agitated thin film dryer, • wherein the oligosaccharide has a degree of polymerization (DP) that is less than 16, preferably less than 15, even more preferably less than 14, even more preferably less than 13, even more preferably less than 12, even more preferably less than 11, even more preferably less than 10, even more preferably less than 9, even more preferably less than 8, most preferably less than 7. […] The “ICUMSA” refers to the International Commission for Uniform methods of Sugar Analysis, i.e., the unit used for the measurement of sugar color.
(§1) A pilot ATFD system (i.e., system B as described throughout the Examples) was used to produce larger amounts of dried oligosaccharide. The inner diameter and length of the drying chamber is 15.1 cm and 41.7 cm, respectively. The heat exchanger area is 0.2 m^2. The heat exchanger area can be heated at 50-120° C. using steam. The distance between the rotor and wall is 0.9 mm. The blades can rotate at 200-2200 rpm. The condenser was operated with cooling water of 5-6° C. The amount of condensed water was measured and used to obtain the evaporation rate. The specific evaporation rate was calculated by dividing the evaporation rate by the used heat exchange area.

[2] = Oligosaccharide analysis of ATFD powder: breakdown during the drying run; type: physicochemical; conditions: ATFD system B; 1-hour run (2′FL) or 2-hour run (LNnT, 6′SL); heated surface 64-70° C., 20-40 mbar
Procedure: Neutral oligosaccharides were analyzed on a Waters™ Acquity H-class UPLC with Evaporative Light Scattering Detector (ELSD) or a Refractive Index (RI) detection. A volume of 0.7 μL sample was injected on a Waters™ Acquity UPLC BEH Amide column (2.1×100 mm; 130 Å; 1.7 μm) column with an Acquity UPLC BEH Amide VanGuard column, 130 Å, 2.1×5 mm. The column temperature was 50° C. The mobile phase consisted of a ¼ water and ¾ acetonitrile solution to which 0.2% triethylamine was added. The method was isocratic with a flow of 0.130 mL/min. […] The temperature of the RI detector was set at 35° C.
(§2) Sialylated oligosaccharides were analyzed on a Waters™ Acquity H-class UPLC with Refractive Index (RI) detection. A volume of 0.5 μL sample was injected on a Waters™ Acquity UPLC BEH Amide column (2.1×100 mm; 130 Å; 1.7 μm). The column temperature was 50° C. The mobile phase consisted of a mixture of 70% acetonitrile, 26% ammonium acetate buffer (150 mM) and 4% methanol to which 0.05% pyrrolidine was added. The method was isocratic with a flow of 0.150 mL/min. The temperature of the RI detector was set at 35° C.
as §2, with “Both neutral and sialylated sugars” for “Sialylated oligosaccharides”, “72% acetonitrile and 28%” for “70% acetonitrile, 26%”, “(100” for “(150”, “mM)” for “mM) and 4% methanol”, “0.1% triethylamine” for “0.05% pyrrolidine”, “0.260” for “0.150”
as §1, with “The heat exchanger area can be heated at 50-120° C. using steam. The distance between the rotor and wall is 0.9 mm. The blades can rotate at 200-2200 rpm. The condenser was operated with cooling water of 5-6° C.” left out

[3] = 25° C.; literature values (WO2018/164937, EFSA Journal); cited from earlier work
[4] = Moisture / water content of dried oligosaccharide powder (Karl Fischer titration, infrared moisture analyzer); type: physicochemical; conditions: powder from ATFD system B; heated surface 64-70° C., 20-40 mbar, rotor 800-850 rpm; about 20% dry weight solution in reverse osmosis water
From the text: Sartorius MA150 Infrared Moisture Analyzer is used to determine the dry matter content of the oligosaccharides. 0.5 g of oligosaccharide is weighed on an analytical balance and is dried in the infrared moisture analyzer until the weight of the sample is stable. The mass of the dried sample divided by the mass of the sample before drying gives the dry matter content (in percent) of the oligosaccharides or sample including oligosaccharides. In a similar way a liquid sample is weighed, however, the amount of liquid weighed is adapted to the expected amount of dry matter in the liquid, so the mass of the dry matter is properly measurable on an analytical balance.
A moisture analyzer measures the dry matter, but not the water content. Karl Fisher titration is used to determine the amount of water present in a powder, ingredient of food. […]
The moisture content (MC) of sample was calculated using the following equation: […]
For testing the principle of agitated thin film drying on oligosaccharides according to the disclosure, a model system (i.e., system A as described throughout the Examples) is used wherein the model directly translates to large scale manufacturing. […] The ATFD chamber was equipped with a Liebig condenser and a dropping funnel to condense and quantify the vapor release. […]
Solutions (such as syrups) containing an oligosaccharide or a mixture of oligosaccharides were preheated to a temperature between 3° and 100° C. and pumped to the system with a peristaltic pump with a flow ranging from 0.1 to 1 kg/h. […] The amount of condensed water was measured and used to obtain the evaporation rate. The specific evaporation rate was calculated by dividing the evaporation rate by the used heat exchange area.
A pilot ATFD system (i.e., system B as described throughout the Examples) was used to produce larger amounts of dried oligosaccharide. […] The amount of condensed water was measured and used to obtain the evaporation rate. The specific evaporation rate was calculated by dividing the evaporation rate by the used heat exchange area. […]

[5] = Bulk density of powder (ASTM D1895 method A, i.e., ISO Method R 60); type: physicochemical; conditions: for bulk density of the powder obtained by ATFD, average during the run: ATFD system B powder; for bulk density of the spray dried powder: spray dried powder (comparison)
From the text: As used herein, the term “bulk density” is the weight of the particles of a particulate solid (such as a powder) in a given volume, and is expressed in grams per liter (g/L). The total volume that the particles of a particulate solid occupy depends on the size of the particles themselves and the volume of the spaces between the particles. Entrapped air between and inside the particles also can affect the bulk density. Thus, a particulate solid consisting of large, porous particles with large inter-particulate spaces will have a lower bulk density than a particulate solid consisting of small, non-porous particles that compact closely together. Bulk density can be expressed in two forms: “loose bulk density” and “tapped bulk density.” Loose bulk density (also known in the art as “freely settled” or “poured” bulk density) is the weight of a particulate solid divided by its volume where the particulate solid has been allowed to settle into that volume of its own accord (e.g., a powder poured into a container).
Techniques for measuring bulk density are well known in the art. Loose bulk density may be measured using a measuring cylinder and weighing scales: the particulate solid is poured into the measuring cylinder and the weight and volume of the particulate solid; weight divided by volume gives the loose bulk density. Tapped bulk density can be measured using the same technique, with the addition of tapping the measuring cylinder a set number of times before measuring weight and volume. Automation of tapping ensures the number, timing and pressure of individual taps is accurate and consistent. Automatic tapping devices are readily available, an example being the Jolting Stampfvolumeter (STAV 203) from J. Englesmann A G.
Lacto-N-neotetraose (LNnT) was recombinantly produced in E. coli according to Example 2, followed by a cell lysis treatment and/or broth clarification according to Example 4. The clarified broth was finally spray dried as described in Example 1 to obtain a powder comprising LNnT (74%), pLNnH (13%; para-lacto-N-neohexaose) and LNT-II (3%; lacto-N-triose II). A solution (16.1 kg) of LNnT was then prepared in reverse osmosis water such that the dry weight is 19.60%. The LNnT solution was then fed into the ATFD system B (it is referred to Example 1) at 7.7 kg/h. […] Every 5 minutes, a sample of the obtained powder was analyzed according to Example 1 (dry matter content, moisture content, oligosaccharide analysis, color).
6′-sialyllactse (6′SL) was recombinantly produced in E. coli according to Example 2, followed by a cell lysis treatment and/or broth clarification according to Example 4. […] Every 5 minutes, a sample of the obtained powder was analyzed according to Example 1 (dry matter content, moisture content, oligosaccharide analysis, color).

Row | color of the obtained powder [1] | oligosaccharide broken down at the end of the run [2] | mean moisture content [4] | bulk density of the powder obtained by ATFD, average during the run [5] | bulk density of the spray dried powder [5] | Molecule | solubility in an aqueous solution [3]
1 | white to off-white | less than 4% | 2.47% |  |  | 2′-fucosyllactose | 1410 mg/mL
2 | white to off-white | less than 10% | 5.5% | 509 ± 16 g/L | 368 g/L | CC(=O)N[C@H]1[C@H](O[C@H]2[C@@H](O)[C@@H](CO)O[C@@H](O[C@H]3[C@H](O)[C@@H](O)C(O)O[C@@H]3CO)[C@@H]2O)O[C@H](CO)[C@@H](O[C@@H]2O[C@H](CO)[C@H](O)[C@H](O)[C@H]2O)[C@@H]1O (mixture of isomers) [Lacto-N-neotetraose] | 500 mg/mL
3 |  |  |  |  |  | CC(=O)N[C@H]1[C@H]([C@H](O)[C@H](O)CO)O[C@@](O[C@H]2[C@@H](O)[C@@H](CO)O[C@@H](O[C@H]3[C@H](O)[C@@H](O)C(O)O[C@@H]3CO)[C@@H]2O)(C(=O)O)C[C@@H]1O (stereo partly drawn) [3′-sialyllactose] | 500 mg/mL (≈ 789 mM)
4 | white to off-white | less than 10% | 6.2-6.8% | 521 ± 10 g/L | 321 g/L | CC(=O)N[C@H]1[C@H]([C@H](O)[C@H](O)CO)O[C@@](OC[C@H]2O[C@@H](O[C@H]3[C@H](O)[C@@H](O)[C@H](O)O[C@@H]3CO)[C@H](O)[C@@H](O)[C@H]2O)(C(=O)O)C[C@@H]1O [6′-sialyllactose] | at least 500 g/L
5 |  |  |  |  |  | CC(=O)N[C@H]1[C@H](O[C@H]2[C@@H](O)[C@@H](CO)O[C@@H](O[C@H]3[C@H](O)[C@@H](O)C(O)O[C@@H]3CO)[C@@H]2O)O[C@H](CO)[C@@H](O)[C@@H]1O[C@@H]1O[C@H](CO)[C@H](O)[C@H](O)[C@H]1O (stereo partly drawn) [Lacto-N-tetraose] | 400 mg/mL (≈ 565 mM)
